Consider four compounds from ChEMBL document CHEMBL1122303, “Synthesis and biological activity of a 2-bromoethylamine (mustard) derivative of hemicholinium-3 and hemicholinium-15” (1983).

Common to all, as to assay type: functional
Assay [1] is filed under the species Rattus norvegicus. As to the kind of experiment: In vitro inhibition of sodium-dependent high-affinity choline uptake activity (1 uM choline) at 2E-5 M concentration in the presence of thiosulfate.
The species named for assay [2] is Rattus norvegicus. As to the kind of experiment: In vitro inhibition of sodium-dependent high-affinity choline uptake activity (1 uM choline) at 2E-5 M concentration in the absence of thiosulfate.
The species named for assay [3] is Rattus norvegicus. Description: In vitro inhibition of sodium-dependent high-affinity choline uptake activity (1 uM choline) at 1E-8 M concentration in the absence of thiosulfate.
The species named for assay [4] is Rattus norvegicus. As to the kind of experiment: In vitro inhibition of sodium-dependent high-affinity choline uptake activity (1 uM choline) at 1E-7 M concentration in the absence of thiosulfate.
The species named for assay [5] is Rattus norvegicus. As to the kind of experiment: inhibition of sodium-dependent high-affinity choline uptake activity at 25 nM concentration for 7.5 min post wash pre-incubation time.
For assay [6], the species on record is Rattus norvegicus. Description: inhibition of sodium-dependent high-affinity choline uptake activity at 25 nM concentration for 15 min post wash pre-incubation time.
For assay [7], the species on record is Rattus norvegicus. Description: Na-dependent high-affinity choline uptake at 25 nM concentration for 7.5 min post wash pre-incubation time.
The species entered for assay [8] is Rattus norvegicus. Description: In vitro inhibition of sodium-dependent high-affinity choline uptake activity (1 uM choline) at 5E-8 M concentration in the absence of thiosulfate.
The species named for assay [9] is Rattus norvegicus. As to the kind of experiment: In vitro inhibition of sodium-dependent high-affinity choline uptake activity (1 uM choline) at 1E-7 M concentration in the presence of thiosulfate.
Assay [10] is filed under the species Rattus norvegicus. Description: Na-dependent high-affinity choline uptake at 25 nM concentration for 15 min post wash preincubation time.
For assay [11], the species on record is Rattus norvegicus. As to the kind of experiment: In vitro inhibition of sodium-dependent high-affinity choline uptake activity (1 uM choline) at 5E-8 M concentration in the presence of thiosulfate.
The species named for assay [12] is Rattus norvegicus. Description: Na-dependent high-affinity choline uptake at 25 nM concentration for 2.5 min post wash pre-incubation time.
Assay [13] is filed under the species Rattus norvegicus. As to the kind of experiment: inhibition of sodium-dependent high-affinity choline uptake activity at 25 nM concentration for 2.5 min post wash pre-incubation time.

One may read the Inhibition as the drop in the measured response relative to a control, in per cent. As for `OC1(c2ccccc2)CN(CCBr)CCO1` (configuration not stated), the Inhibition in the assay filed under Rattus norvegicus [1] is listed as 9%; in the assay filed under Rattus norvegicus [2], 71%.

Take `C[N+]1(C)CCOC(O)(c2ccccc2)C1` (configuration not stated): the Inhibition in the assay listed under Rattus norvegicus [2] came to 58%.

For `OC1(c2ccc(-c3ccc(C4(O)CN(CCBr)CCO4)cc3)cc2)CN(CCBr)CCO1` (configuration not stated), the Inhibition in the assay filed under Rattus norvegicus [3] stood at 84%; in the assay filed under Rattus norvegicus [4] it was 100%; in the assay filed under Rattus norvegicus [5] it was 32.9%; in the assay listed under Rattus norvegicus [6], 34%; in the assay listed under Rattus norvegicus [8], 100%; in the assay filed under Rattus norvegicus [9], 0%. Also, the Inhibition in the assay listed under Rattus norvegicus [11] was 0%; in the assay filed under Rattus norvegicus [13], 31.2%. Besides, the Choline uptake in the assay listed under Rattus norvegicus [7] was 59.8 pM (4 min)-1 (mg of protein)-1; in the assay listed under Rattus norvegicus [10], 54.9 pM (4 min)-1 (mg of protein)-1; in the assay filed under Rattus norvegicus [12] it was 58.8 pM (4 min)-1 (mg of protein)-1.

As for `C[N+]1(C)CCOC(O)(c2ccc(-c3ccc(C4(O)C[N+](C)(C)CCO4)cc3)cc2)C1` (configuration not stated) [HEMICHOLINIUM-3], the values for the Inhibition in the assay listed under Rattus norvegicus [3], in the assay filed under Rattus norvegicus [8] and in the assay filed under Rattus norvegicus [11] were 35%, 83% and 85%, respectively.
